Data on one molecule can be found in patent publication US20190380965A1 (priority 2018, published 2019).

The format of the data set is physicochemical. To be noted: for drug dissolved in water: 500 mg flucytosine added to 10 mL water. Here is the method: The powder and granule pharmaceutical compositions of the present invention dissolve or suspend when added to water quickly. This pharmaceutical composition is therefore termed as “quick water-dispersing”. The term “quick” herein is defined as less than 2 to 3 minutes when shaken gently. In other words, when the granules are added to water, and gently mixed, a suspension is formed in less than 2 to 3 minutes. The “quick water-dispersing” property was achieved by selecting a correct particle size of suspending agent(s) which is the novelty of this invention. The suspension is achieved by simple mixing of powder in water—without use of complex instruments which are available in the home-environment to patients. […] After reaching the gastro-intestinal tract, the remaining drug dissolves. The pharmaceutical compositions according to the present invention provide for an immediate release of the Flucytosine from the dosage form.
USP II apparatus were used and UV-visible spectrometer was used for quantification of Flucytosine from dissolution. […] When we combine other antifungal agents in this formulation, the dissolved fraction of flucytosine will change.

Where two headings read alike, the source gives them in different places.

As to `Nc1nc(=O)[nH]cc1F` [Flucytosine, 5-fluorocytosine], the “drug dissolved in water” value was “about 150 mg”. Further, the “drug dissolved in water” value (listed as flucytosine) is given as 150 mg. For the same molecule, where the note is “dose of 500 mg flucytosine”, the “water needed to dissolve the drug” value is on record as 33.3 mL.
